Earlier results in patent US20080261897A1, “Formulation Containing a Polyphenol-Containing Composition and Isomaltulose” (priority 2005, published 2008).

O=C(CO)[C@@H](O)[C@H](O)[C@H](O)CO[C@H]1O[C@H](CO)[C@@H](O)[C@H](O)[C@H]1O [isomaltulose, 6-O-α-D-glucopyranosylfructose]
solubility of isomaltulose in water: 0.49 g of anhydrous isomaltulose per g of water
